Reference: US12679843B2, “Pyrrolopyrimidine amines as complement inhibitors” (BioCryst Pharmaceuticals, Inc., priority 2020, dated 2026)

Target: Factor D (Homo sapiens, UniProt P00746)
Assay: Factor D esterolytic assay (Z-Lys-SBzl thioester substrate, DTNB, 405 nm)
Format: biochemical
Conditions: substrate Z-Lys-SBzl 1.29 mM, 100 mM HEPES, 500 mM NaCl, pH 7.5, 10% DMSO, tested a minimum of three times
Outline: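 Human Factor D hydrolysis of Z-Lys-SBzl (1.29 mM) monitored at 405 nm via DTNB thiol detection for 600 s, 690 nm background subtracted. Buffer 100 mM HEPES, 500 mM NaCl, pH 7.5, 10% DMSO; substrate added immediately or after room-temperature preincubation. IC50 from percent inhibition of rate, at least three tests.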

Factor D, sequence (P00746 26-253): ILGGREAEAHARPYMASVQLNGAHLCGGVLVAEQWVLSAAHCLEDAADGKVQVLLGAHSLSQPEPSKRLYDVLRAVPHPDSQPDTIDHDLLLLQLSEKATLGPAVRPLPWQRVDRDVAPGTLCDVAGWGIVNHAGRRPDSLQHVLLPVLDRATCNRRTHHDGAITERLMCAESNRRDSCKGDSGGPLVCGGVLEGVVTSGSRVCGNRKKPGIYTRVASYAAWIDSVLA

| Compound | IC50 |
| --- | --- |
| NCc1ccc2c(c1)c1c(N)ncnc1n2CC(=O)N1[C@@H]2C[C@@H]2C[C@H]1C(=O)Nc1cccc(Br)n1 [Compound 63d, (1R,3S,5R)-2-(2-(4-amino-6-(aminomethyl)-9H-pyrimido[4,5-b]indol-9-yl)acetyl)-N-(6-bromopyridin-2-yl)-2-azabicyclo[3.1.0]hexane-3-carboxamide] | < 100 nM |
| Nc1ncnc2c1ccn2CC(=O)N1C[C@H](F)C[C@H]1C(=O)NCc1cccc(Cl)c1F [Compound 64a, (2S,4R)-1-(2-(4-amino-7H-pyrrolo[2,3-d]pyrimidin-7-yl)acetyl)-N-(3-chloro-2-fluorobenzyl)-4-fluoropyrrolidine-2-carboxamide] | < 100 nM |
| Nc1ncnn2c(CC(=O)N3C[C@H](F)C[C@H]3C(=O)NCc3cccc(Cl)c3F)ccc12 [Compound 65a, (2S,4R)-1-(2-(4-aminopyrrolo[2,1-f][1,2,4]triazin-7-yl)acetyl)-N-(3-chloro-2-fluorobenzyl)-4-fluoropyrrolidine-2-carboxamide] | < 100 nM |
| Nc1ncnn2c(CC(=O)N3[C@@H]4C[C@@H]4C[C@H]3C(=O)NCc3cccc(Cl)c3F)ccc12 [Compound 66b, (1R,3S,5R)-2-(2-(4-aminopyrrolo[2,1-f][1,2,4]triazin-7-yl)acetyl)-N-(3-chloro-2-fluorobenzyl)-2-azabicyclo[3.1.0]hexane-3-carboxamide] | 100 to 1000 nM |
| C[C@@]12C[C@@H](C(=O)NCc3cccc(Cl)c3F)N(C(=O)Cn3cnc4c(N)ncnc43)[C@@H]1C2 [Compound 67c, (1R,3S,5R)-2-(2-(6-amino-9H-purin-9-yl)acetyl)-N-(3-chloro-2-fluorobenzyl)-5-methyl-2-azabicyclo[3.1.0]hexane-3-carboxamide] | 100 to 1000 nM |
| Cc1ccc(Br)nc1NC(=O)[C@@H]1C[C@@H](F)CN1C(=O)Cn1cnc2c(N)ncnc21 [Compound 68a, (2S,4R)-1-(2-(6-amino-9H-purin-9-yl)acetyl)-N-(6-bromo-3-methylpyridin-2-yl)-4-fluoropyrrolidine-2-carboxamide] | 100 to 1000 nM |
| Nc1ncnn2c(CC(=O)N3C[C@H](F)C[C@H]3C(=O)Nc3cccc(Br)n3)ccc12 [Compound 69a, (2S,4R)-1-(2-(4-aminopyrrolo[2,1-f][1,2,4]triazin-7-yl)acetyl)-N-(6-bromopyridin-2-yl)-4-fluoropyrrolidine-2-carboxamide] | 100 to 1000 nM |
| Nc1ncnn2c(CC(=O)N3[C@@H]4C[C@@H]4C[C@H]3C(=O)Nc3cccc(Br)n3)ccc12 [Compound 70a, (1R,3S,5R)-2-(2-(4-aminopyrrolo[2,1-f][1,2,4]triazin-7-yl)acetyl)-N-(6-bromopyridin-2-yl)-2-azabicyclo[3.1.0]hexane-3-carboxamide] | 100 to 1000 nM |
| C[C@@]12C[C@@H](C(=O)Nc3cccc(Br)n3)N(C(=O)Cc3ccc4c(N)ncnn34)[C@@H]1C2 [Compound 71a, (1R,3S,5R)-2-(2-(4-aminopyrrolo[2,1-f][1,2,4]triazin-7-yl)acetyl)-N-(6-bromopyridin-2-yl)-5-methyl-2-azabicyclo[3.1.0]hexane-3-carboxamide] | 100 to 1000 nM |
| Cc1ccc(Br)nc1NC(=O)[C@@H]1C[C@@]2(C)C[C@H]2N1C(=O)Cc1ccc2c(N)ncnn12 [Compound 72a, (1R,3S,5R)-2-(2-(4-aminopyrrolo[2,1-f][1,2,4]triazin-7-yl)acetyl)-N-(6-bromo-3-methylpyridin-2-yl)-5-methyl-2-azabicyclo[3.1.0]hexane-3-carboxamide] | 100 to 1000 nM |
| C[C@@]12C[C@@H](C(=O)Nc3cccc(Br)n3)N(C(=O)Cn3ccc4c(N)ncnc43)[C@@H]1C2 [Compound 73a, (1R,3S,5R)-2-(2-(4-amino-7H-pyrrolo[2,3-d]pyrimidin-7-yl)acetyl)-N-(6-bromopyridin-2-yl)-5-methyl-2-azabicyclo[3.1.0]hexane-3-carboxamide] | < 100 nM |
| Cc1ccc(Br)nc1NC(=O)[C@@H]1C[C@@]2(C)C[C@H]2N1C(=O)Cn1ccc2c(N)ncnc21 [Compound 74a, (1R,3S,5R)-2-(2-(4-amino-7H-pyrrolo[2,3-d]pyrimidin-7-yl)acetyl)-N-(6-bromo-3-methylpyridin-2-yl)-5-methyl-2-azabicyclo[3.1.0]hexane-3-carboxamide] | 100 to 1000 nM |
| CNc1ncnc2c1cnn2CC(=O)N1CCC[C@H]1C(=O)Nc1cccc(Br)n1 [Compound 75d, (S)—N-(6-bromopyridin-2-yl)-1-(2-(4-(methylamino)-1H-pyrazolo[3,4-d]pyrimidin-1-yl)acetyl)pyrrolidine-2-carboxamide] | > 1000 nM |
| CNc1ncnc2c1cnn2CC(=O)N1CCC[C@H]1C(=O)NCc1cccc(Cl)c1F [Compound 76b, (S)—N-(3-chloro-2-fluorobenzyl)-1-(2-(4-(methylamino)-1H-pyrazolo[3,4-d]pyrimidin-1-yl)acetyl)pyrrolidine-2-carboxamide] | > 1000 nM |
| Nc1ncnc2c1cnn2CC(=O)N1CCC[C@H]1C(=O)Nc1cccc(Br)n1 [Compound 77b, (S)-1-(2-(4-amino-1H-pyrazolo[3,4-d]pyrimidin-1-yl)acetyl)-N-(6-bromopyridin-2-yl)pyrrolidine-2-carboxamide] | > 1000 nM |
| Nc1ncnc2c1cnn2CC(=O)N1CCC[C@H]1C(=O)NCc1cccc(Cl)c1F [Compound 78a, (S)-1-(2-(4-amino-1H-pyrazolo[3,4-d]pyrimidin-1-yl)acetyl)-N-(3-chloro-2-fluorobenzyl)pyrrolidine-2-carboxamide] | 100 to 1000 nM |
| Nc1ncnc2c1cnn2CC(=O)N1[C@@H]2C[C@@H]2C[C@H]1C(=O)Nc1cccc(Br)n1 [Compound 79a, (1R,3S,5R)-2-(2-(4-amino-1H-pyrazolo[3,4-d]pyrimidin-1-yl)acetyl)-N-(6-bromopyridin-2-yl)-2-azabicyclo[3.1.0]hexane-3-carboxamide] | 100 to 1000 nM |
| Nc1ncnc2c1ccn2CC(=O)N1[C@@H]2C[C@@H]2C[C@H]1C(=O)Nc1cccc(Br)n1 [Compound 80a, (1R,3S,5R)-2-(2-(4-amino-7H-pyrrolo[2,3-d]pyrimidin-7-yl)acetyl)-N-(6-bromopyridin-2-yl)-2-azabicyclo[3.1.0]hexane-3-carboxamide] | < 100 nM |
| Nc1ncnc2c1ccn2CC(=O)N1[C@@H]2C[C@@H]2C[C@H]1C(=O)NCc1cccc(Cl)c1F [Compound 81a, (1R,3S,5R)-2-(2-(4-amino-7H-pyrrolo[2,3-d]pyrimidin-7-yl)acetyl)-N-(3-chloro-2-fluorobenzyl)-2-azabicyclo[3.1.0]hexane-3-carboxamide] | < 100 nM |
| CNc1ncnc2c1cnn2CC(=O)N1[C@@H]2C[C@@H]2C[C@H]1C(=O)Nc1cccc(Br)n1 [Compound 82a, (1R,3S,5R)—N-(6-bromopyridin-2-yl)-2-(2-(4-(methylamino)-1H-pyrazolo[3,4-d]pyrimidin-1-yl)acetyl)-2-azabicyclo[3.1.0]hexane-3-carboxamide] | > 1000 nM |
| Nc1ccnc2c1ccn2CC(=O)N1[C@@H]2C[C@@H]2C[C@H]1C(=O)Nc1cccc(Br)n1 [Compound 83d, (1R,3S,5R)-2-(2-(4-amino-1H-pyrrolo[2,3-b]pyridin-1-yl)acetyl)-N-(6-bromopyridin-2-yl)-2-azabicyclo[3.1.0]hexane-3-carboxamide] | 100 to 1000 nM |
| Nc1ncnc2c1ncn2CC(=O)N1[C@@H]2C[C@@H]2C[C@H]1C(=O)Nc1cccc(Br)n1 [Compound 84a, (1R,3S,5R)-2-(2-(6-amino-9H-purin-9-yl)acetyl)-N-(6-bromopyridin-2-yl)-2-azabicyclo[3.1.0]hexane-3-carboxamide] | 100 to 1000 nM |
